Structures can show the parent of a compound that is named as a salt.
Columns and labels:
[1] = Solubility of nalmefene HCl in polar solvents at 100 mg/mL; assay type: physicochemical; settings: test concentration 100 mg/mL
Text: Ethanol, propylene glycol, glycerol, methanol, and water were considered.

[2] = Solubility evaluation of nalmefene in solvent systems; assay type: physicochemical
Experimental: In addition, the solubility of nalmefene in varying concentrations was evaluated using different combinations of solvent systems. The solvent systems included combinations of polar solvents with different surface active agents. The solvent systems provided different volatilization rates. […] Exemplary surface active agents included: Tween 20, Tween 80, Gelucire® 34/44, Kolliphor® HS 15, Solutol® NF, Labrafil® M2125 CS and Labrafil® M1944 CS.

in vivo = settings: both, beagle, dog, plasma, iv, 4 mg/animal
[3] = cited from earlier work
[4] = Pharmacokinetic study of nalmefene buccal films and nalmefene IV in beagle dogs (plasma, LC/MS, noncompartmental analysis); settings: majority of concentrations, after buccal film or IV nalmefene, lower limit of quantitation 0.1 ng/mL

With C=C1CC[C@@]2(O)[C@H]3Cc4ccc(O)c5c4[C@@]2(CCN3CC2CC2)[C@H]1O5 [Nalmefene HCl Monohydrate] the “Solubility of Nalmefene HCl Monohydrate” value ([1]; Ethanol NF) was “Partially”, the “Solubility of Nalmefene HCl Monohydrate” value ([1]; Glycerol USP) was “Partially” and the “Solubility of Nalmefene HCl Monohydrate” value ([1]; Methanol) was “Highly”. For the same molecule, the “Solubility of Nalmefene HCl Monohydrate” value ([1]; Propylene glycol USP) was “Partially” and the “Solubility of Nalmefene HCl Monohydrate” value ([1]; Water NF) was “Moderately high”.
With C=C1CC[C@@]2(O)[C@H]3Cc4ccc(O)c5c4[C@@]2(CCN3CC2CC2)[C@H]1O5 [nalmefene, 6-methylene-6-deoxy-N-cyclopropylmethyl-14 hydroxydihydronormorphine] the Solubility observation ([2]; Ethanol:Water 75:25, nalmefene 200 mg/mL) was “Completely Soluble,”, the Solubility observation ([2]; Ethanol:Water:Gelucire 34/14 75:20:5, nalmefene 200 mg/mL) was “Completely Soluble,” and the Solubility observation ([2]; Ethanol:Water:Glycerine 70:20:10, nalmefene 300 mg/mL) was “Completely Soluble,”. The Solubility observation ([2]; Ethanol:Water:Labrafil M1944 CS 80:17.5:2.5, nalmefene 200 mg/mL) was “Completely Soluble,”, the Solubility observation ([2]; Ethanol:Water:Labrafil M2125 OS 80:17.5:2.5, nalmefene 200 mg/mL) was “Completely Soluble,” and the Solubility observation ([2]; Ethanol:Water:Propylene Glycol 68:22:10, nalmefene 350 mg/mL) was “Completely Soluble,”. The Solubility observation ([2]; Ethanol:Water:Propylene Glycol 82.5:12.5:5, nalmefene 200 mg/mL) was “Completely Soluble,”, the Solubility observation ([2]; Ethanol:Water:Propylene Glycol:Tween 80 70:25:4:1, nalmefene 350 mg/mL) was “Completely Soluble,” and the Solubility observation ([2]; Ethanol:Water:Tween 20 75:24.5:0.5, nalmefene 250 mg/mL) was “Completely Soluble,”. It also gave a Vd (in vivo) of 2.77 L/kg, a clearance (in vivo) of 46.2 mL/min/kg and a half-life (in vivo) of 1.34 h.
For C=C1CC[C@@]2(O)[C@H]3Cc4ccc(O)c5c4[C@@]2(CCN3CC2CC2)[C@H]1O5 [Nalmefene hydrochloride], the pKa1 ([3]; amine) is listed as 8.38, the “log P” value [3] is listed as 2.66 and the Solubility in water ([3]; freely soluble) is listed as “up to 130 mg/mL”. For the same molecule, the pKa2 ([3]; phenol) was 10.00 and the Solubility in chloroform ([3]; slightly soluble) was “up to 0.13 mg/mL”.
With C=C1CC[C@@]2(O)[C@H]3Cc4ccc(O)c5c4[C@@]2(CCN3)[C@H]1O5 [nornalmefene] the “Nornalmefene (metabolite) plasma concentrations” value [4] was “below the limit of quantitation”.
